The source of these data is ChEMBL document CHEMBL2150974 (J Med Chem, 2012).

The source made the active and inactive calls. No cut-off for these calls is given here.

The target of test [1] is Focal adhesion kinase 1 (Homo sapiens) (UniProt Q05397). Kind of test: Inhibition of FAK at 10 uM.
In test [2] the target is Insulin-like growth factor 1 receptor (Homo sapiens) (UniProt P08069). Kind of test: Inhibition of IGF1R at 10 uM.
Test [3] has as its target Insulin receptor (Homo sapiens) (UniProt P06213). Kind of test: Inhibition of INSR at 10 uM.
In test [4] the target is Aurora kinase B (Homo sapiens) (UniProt Q96GD4). The experiment in a line: Inhibition of AuroraB at 10 uM.
The target in test [5] is T1, NUAK family SNF1-like kinase 1 (Homo sapiens) (UniProt O60285).
T1 sequence (whole entry): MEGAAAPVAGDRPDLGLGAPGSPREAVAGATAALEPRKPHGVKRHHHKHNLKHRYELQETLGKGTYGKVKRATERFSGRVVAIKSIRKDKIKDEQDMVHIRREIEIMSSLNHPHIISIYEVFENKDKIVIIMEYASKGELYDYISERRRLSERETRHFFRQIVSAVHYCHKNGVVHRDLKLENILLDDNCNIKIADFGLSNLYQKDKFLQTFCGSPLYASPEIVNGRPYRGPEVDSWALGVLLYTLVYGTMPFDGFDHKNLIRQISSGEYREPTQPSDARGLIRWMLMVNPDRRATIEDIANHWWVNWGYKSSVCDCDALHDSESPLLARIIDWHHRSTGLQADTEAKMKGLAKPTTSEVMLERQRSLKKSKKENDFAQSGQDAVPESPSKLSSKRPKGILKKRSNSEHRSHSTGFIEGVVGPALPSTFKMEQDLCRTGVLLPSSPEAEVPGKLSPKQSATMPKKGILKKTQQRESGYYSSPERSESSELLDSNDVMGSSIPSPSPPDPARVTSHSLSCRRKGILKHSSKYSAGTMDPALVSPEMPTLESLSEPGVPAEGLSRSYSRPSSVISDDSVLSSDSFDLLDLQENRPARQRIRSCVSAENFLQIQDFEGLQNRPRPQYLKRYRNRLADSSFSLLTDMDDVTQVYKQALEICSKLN
The experiment in a line: Inhibition of ARK5 at 10 uM.

The target of test [6] is Serine/threonine-protein kinase N1 (Homo sapiens) (UniProt Q16512). Kind of test: Inhibition of PRK1 at 10 uM.
Test [7] concerns the target T2, Mitogen-activated protein kinase 14 (Homo sapiens, UniProt Q16539). The experiment in a line: Inhibition of p38alpha by immunosorbent based kinase assay.
Test [8] concerns the target Vascular endothelial growth factor receptor 2 (Homo sapiens) (UniProt P35968). The experiment in a line: Inhibition of VEGFR2 at 10 uM.
The target in test [9] is T2, Mitogen-activated protein kinase 14. Kind of test: Inhibition of p38alpha-dependent TNFalpha production in human whole blood.
Test [10] deals with RAC-alpha serine/threonine-protein kinase (Homo sapiens) (UniProt P31749). The experiment in a line: Inhibition of AKT1 at 10 uM.
RAC-alpha serine/threonine-protein kinase (Homo sapiens), sequence (P31749 whole entry): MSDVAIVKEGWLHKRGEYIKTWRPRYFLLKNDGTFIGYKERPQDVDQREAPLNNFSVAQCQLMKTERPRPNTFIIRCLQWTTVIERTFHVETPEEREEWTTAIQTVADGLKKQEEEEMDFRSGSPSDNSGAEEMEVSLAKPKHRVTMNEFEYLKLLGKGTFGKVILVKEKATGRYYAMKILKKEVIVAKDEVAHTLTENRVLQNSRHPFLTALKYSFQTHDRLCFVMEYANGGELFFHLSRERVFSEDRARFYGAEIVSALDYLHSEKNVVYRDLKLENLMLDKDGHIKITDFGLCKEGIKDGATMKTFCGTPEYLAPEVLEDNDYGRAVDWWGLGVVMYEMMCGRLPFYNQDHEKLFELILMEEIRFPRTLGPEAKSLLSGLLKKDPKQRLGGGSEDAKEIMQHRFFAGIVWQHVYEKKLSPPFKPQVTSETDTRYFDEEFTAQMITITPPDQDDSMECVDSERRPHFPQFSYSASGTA
In test [11] the test system is Serine/threonine-protein kinase B-raf (Homo sapiens), P15056 [V600E]. Kind of test: Inhibition of BRAF V600E mutant at 10 uM.
In test [12] the target is Proto-oncogene tyrosine-protein kinase Src (Homo sapiens) (UniProt P12931). Kind of test: Inhibition of SRC at 10 uM.
Proto-oncogene tyrosine-protein kinase Src (Homo sapiens), sequence (P12931 2-536 limits assumed): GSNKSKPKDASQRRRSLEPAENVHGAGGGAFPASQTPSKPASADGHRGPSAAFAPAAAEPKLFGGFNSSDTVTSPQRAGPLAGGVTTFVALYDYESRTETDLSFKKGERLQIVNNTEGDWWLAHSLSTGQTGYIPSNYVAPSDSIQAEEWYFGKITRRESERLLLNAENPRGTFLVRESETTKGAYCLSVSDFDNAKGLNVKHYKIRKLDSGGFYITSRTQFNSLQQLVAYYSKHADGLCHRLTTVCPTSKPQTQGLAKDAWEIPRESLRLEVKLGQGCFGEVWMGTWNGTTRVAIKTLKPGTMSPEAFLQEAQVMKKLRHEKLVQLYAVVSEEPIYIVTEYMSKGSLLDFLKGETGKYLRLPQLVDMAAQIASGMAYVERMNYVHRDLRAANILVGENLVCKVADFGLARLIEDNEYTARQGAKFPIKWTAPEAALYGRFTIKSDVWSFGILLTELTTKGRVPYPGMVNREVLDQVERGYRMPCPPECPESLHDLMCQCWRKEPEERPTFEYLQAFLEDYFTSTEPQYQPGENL
Test [13] has as its target Serine/threonine-protein kinase PLK1 (Homo sapiens) (UniProt P53350). Kind of test: Inhibition of PLK1 at 10 uM.
Test [14] addresses T3, Serine/threonine-protein kinase PLK4 (Homo sapiens) (UniProt O00444).
T3 sequence (whole entry): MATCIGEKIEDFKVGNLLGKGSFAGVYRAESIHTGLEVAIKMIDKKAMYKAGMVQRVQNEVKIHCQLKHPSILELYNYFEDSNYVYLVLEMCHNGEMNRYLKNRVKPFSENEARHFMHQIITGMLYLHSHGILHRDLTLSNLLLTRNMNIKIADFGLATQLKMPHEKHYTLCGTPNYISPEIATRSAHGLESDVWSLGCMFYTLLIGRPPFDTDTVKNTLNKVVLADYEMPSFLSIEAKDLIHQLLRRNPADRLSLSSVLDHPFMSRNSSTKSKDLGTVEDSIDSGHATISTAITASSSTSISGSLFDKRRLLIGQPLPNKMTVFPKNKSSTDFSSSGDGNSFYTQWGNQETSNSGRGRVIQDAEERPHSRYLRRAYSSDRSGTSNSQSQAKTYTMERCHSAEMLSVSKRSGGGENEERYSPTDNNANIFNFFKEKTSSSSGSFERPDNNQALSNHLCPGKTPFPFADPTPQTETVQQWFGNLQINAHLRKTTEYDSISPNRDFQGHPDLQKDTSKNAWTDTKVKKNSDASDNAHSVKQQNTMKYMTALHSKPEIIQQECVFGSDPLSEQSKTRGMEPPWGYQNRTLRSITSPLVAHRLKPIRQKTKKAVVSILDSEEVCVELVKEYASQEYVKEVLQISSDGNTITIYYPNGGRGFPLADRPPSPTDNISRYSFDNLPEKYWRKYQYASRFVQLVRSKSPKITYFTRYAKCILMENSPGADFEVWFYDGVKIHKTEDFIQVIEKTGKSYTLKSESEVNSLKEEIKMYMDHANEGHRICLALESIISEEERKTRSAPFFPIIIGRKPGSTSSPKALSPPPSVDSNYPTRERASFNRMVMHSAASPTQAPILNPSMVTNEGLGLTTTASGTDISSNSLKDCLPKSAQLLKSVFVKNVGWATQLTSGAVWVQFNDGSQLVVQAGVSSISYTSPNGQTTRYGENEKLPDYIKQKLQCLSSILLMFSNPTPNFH
The experiment in a line: Inhibition of SAK at 10 uM.

Test [15] has as its target Hepatocyte growth factor receptor (Homo sapiens) (UniProt P08581). Kind of test: Inhibition of MET at 10 uM.
The target of test [16] is Casein kinase II subunit alpha (Homo sapiens) (UniProt P68400). The experiment in a line: Inhibition of CK2alpha1 at 10 uM.
Casein kinase II subunit alpha (Homo sapiens), sequence (P68400 whole entry, looked up): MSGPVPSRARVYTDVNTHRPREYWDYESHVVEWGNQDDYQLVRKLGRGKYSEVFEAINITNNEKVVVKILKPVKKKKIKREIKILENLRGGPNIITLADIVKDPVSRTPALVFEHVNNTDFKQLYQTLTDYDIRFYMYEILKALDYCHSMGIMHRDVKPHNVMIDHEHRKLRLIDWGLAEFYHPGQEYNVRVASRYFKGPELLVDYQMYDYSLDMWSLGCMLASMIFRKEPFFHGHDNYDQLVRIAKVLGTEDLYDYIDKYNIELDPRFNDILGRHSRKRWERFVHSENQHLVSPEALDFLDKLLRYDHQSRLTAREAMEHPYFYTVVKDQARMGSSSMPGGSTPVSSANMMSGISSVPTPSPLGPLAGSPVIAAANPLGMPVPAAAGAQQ
Test [17] addresses Tyrosine-protein kinase receptor UFO (Homo sapiens) (UniProt P30530). Kind of test: Inhibition of AXL at 10 uM.
Test [18] concerns the target BDNF/NT-3 growth factors receptor (Homo sapiens) (UniProt Q16620). The experiment in a line: Inhibition of TRKB at 10 uM.

Hepatocyte growth factor receptor (Homo sapiens), sequence (P08581 whole entry): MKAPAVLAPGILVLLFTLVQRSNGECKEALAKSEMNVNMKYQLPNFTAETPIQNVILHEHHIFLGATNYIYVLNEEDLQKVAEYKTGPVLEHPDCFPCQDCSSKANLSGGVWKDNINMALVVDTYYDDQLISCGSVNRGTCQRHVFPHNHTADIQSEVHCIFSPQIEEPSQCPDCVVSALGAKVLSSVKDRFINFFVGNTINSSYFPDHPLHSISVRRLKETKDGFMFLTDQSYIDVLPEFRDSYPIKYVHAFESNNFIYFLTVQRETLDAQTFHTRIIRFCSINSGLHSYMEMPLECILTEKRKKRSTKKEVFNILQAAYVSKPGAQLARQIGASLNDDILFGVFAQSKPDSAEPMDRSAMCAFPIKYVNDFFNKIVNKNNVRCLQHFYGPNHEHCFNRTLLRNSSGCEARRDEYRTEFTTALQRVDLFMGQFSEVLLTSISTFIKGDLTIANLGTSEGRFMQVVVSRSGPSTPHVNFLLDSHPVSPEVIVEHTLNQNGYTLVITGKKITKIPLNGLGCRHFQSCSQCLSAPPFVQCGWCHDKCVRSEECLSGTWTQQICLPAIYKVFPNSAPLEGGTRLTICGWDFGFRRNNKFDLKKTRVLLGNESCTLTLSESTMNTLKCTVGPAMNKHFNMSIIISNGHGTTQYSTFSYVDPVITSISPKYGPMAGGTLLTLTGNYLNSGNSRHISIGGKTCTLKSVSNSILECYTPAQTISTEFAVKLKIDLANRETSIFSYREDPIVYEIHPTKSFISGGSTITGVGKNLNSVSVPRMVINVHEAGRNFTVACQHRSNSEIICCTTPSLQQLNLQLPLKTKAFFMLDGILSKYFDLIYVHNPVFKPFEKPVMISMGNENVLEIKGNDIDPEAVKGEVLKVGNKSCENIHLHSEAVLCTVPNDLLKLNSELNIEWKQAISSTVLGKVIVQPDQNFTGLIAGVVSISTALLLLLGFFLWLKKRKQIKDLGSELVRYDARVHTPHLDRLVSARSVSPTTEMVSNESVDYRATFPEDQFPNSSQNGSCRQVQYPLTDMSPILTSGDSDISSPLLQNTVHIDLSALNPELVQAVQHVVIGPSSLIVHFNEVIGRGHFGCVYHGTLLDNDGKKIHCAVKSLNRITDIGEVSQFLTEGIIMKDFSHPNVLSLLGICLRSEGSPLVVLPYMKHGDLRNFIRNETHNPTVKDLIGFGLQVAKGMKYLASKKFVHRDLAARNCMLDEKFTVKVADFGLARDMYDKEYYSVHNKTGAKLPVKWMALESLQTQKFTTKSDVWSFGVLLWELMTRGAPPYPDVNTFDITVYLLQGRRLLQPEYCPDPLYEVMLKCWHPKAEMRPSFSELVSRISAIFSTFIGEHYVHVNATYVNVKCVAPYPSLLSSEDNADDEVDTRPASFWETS
Insulin receptor (Homo sapiens), sequence (P06213 28-758 limits assumed): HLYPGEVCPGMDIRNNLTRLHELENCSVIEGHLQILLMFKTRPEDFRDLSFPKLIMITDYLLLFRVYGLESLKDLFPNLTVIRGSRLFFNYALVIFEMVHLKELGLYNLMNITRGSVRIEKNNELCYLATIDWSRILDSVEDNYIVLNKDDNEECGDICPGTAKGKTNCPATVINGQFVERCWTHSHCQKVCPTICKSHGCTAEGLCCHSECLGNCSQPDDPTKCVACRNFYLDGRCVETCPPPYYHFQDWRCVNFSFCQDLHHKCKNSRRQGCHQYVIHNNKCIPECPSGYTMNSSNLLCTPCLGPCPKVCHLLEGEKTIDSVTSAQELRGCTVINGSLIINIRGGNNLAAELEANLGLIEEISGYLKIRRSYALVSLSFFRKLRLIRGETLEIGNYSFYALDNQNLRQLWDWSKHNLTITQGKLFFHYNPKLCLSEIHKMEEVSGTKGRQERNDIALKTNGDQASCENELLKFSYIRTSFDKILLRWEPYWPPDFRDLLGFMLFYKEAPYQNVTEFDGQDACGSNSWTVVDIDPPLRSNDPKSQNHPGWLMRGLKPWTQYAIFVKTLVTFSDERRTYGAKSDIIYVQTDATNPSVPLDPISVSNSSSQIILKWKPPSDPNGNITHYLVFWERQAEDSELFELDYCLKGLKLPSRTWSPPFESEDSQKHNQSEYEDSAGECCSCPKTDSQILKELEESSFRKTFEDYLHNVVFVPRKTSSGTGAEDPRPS
Insulin receptor (Homo sapiens), sequence (P06213 763-1382 limits assumed): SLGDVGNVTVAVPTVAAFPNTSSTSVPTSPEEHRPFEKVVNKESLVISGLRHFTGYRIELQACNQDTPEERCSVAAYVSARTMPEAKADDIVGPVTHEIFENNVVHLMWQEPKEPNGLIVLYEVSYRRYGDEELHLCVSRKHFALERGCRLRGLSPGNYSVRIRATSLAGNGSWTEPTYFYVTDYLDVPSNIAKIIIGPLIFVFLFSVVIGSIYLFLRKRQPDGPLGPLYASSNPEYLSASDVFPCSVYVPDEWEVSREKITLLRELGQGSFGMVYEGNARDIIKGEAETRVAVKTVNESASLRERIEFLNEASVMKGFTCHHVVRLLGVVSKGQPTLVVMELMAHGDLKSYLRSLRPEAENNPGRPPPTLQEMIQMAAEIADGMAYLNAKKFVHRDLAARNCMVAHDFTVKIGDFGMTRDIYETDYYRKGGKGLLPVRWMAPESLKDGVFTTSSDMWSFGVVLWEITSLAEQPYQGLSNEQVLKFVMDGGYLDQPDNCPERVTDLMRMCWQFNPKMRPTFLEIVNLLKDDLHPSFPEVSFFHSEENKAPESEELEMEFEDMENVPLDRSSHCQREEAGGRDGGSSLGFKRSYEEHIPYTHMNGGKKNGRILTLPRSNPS
Serine/threonine-protein kinase PLK1 (Homo sapiens), sequence (P53350 whole entry): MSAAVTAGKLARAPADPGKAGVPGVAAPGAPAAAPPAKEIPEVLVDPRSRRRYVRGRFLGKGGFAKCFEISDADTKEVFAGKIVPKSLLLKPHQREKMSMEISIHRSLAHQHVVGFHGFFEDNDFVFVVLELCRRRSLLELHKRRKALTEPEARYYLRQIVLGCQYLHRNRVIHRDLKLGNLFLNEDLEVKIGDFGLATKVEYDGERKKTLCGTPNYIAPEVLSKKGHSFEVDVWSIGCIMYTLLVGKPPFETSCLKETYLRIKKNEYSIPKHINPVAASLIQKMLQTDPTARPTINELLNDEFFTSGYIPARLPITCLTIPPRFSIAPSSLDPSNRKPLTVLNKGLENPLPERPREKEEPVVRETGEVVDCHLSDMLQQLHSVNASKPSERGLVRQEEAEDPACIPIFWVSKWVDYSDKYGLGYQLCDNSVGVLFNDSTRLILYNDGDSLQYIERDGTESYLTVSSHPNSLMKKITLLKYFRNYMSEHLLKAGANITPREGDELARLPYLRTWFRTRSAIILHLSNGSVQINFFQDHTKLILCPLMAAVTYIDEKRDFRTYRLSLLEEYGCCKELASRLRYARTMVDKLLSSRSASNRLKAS

For the compound `O=C1c2ccc(Nc3ccc(F)cc3F)cc2CCc2c(O)cccc21`, the inhibition entry in test [1], in test [2], in [3], in test [4], in test [5] and in test [6] was “inactive” each time. For the same compound, the inhibition entry in test [8], in test [10], in test [11], in test [12], in test [13] and in test [14] was “inactive” throughout. The inhibition entry in test [15], in [16], in test [17] and in test [18] was “inactive” in each case. Besides, the IC50 in [7] worked out at 20 nM; in [9], 37300 nM.
Take `O=C1c2ccc(Nc3ccc(F)cc3F)cc2CCc2ccc(OCCCO)cc21`: the inhibition result in test [1], in test [2], in test [3], in test [4], in test [5] and in [6] was “inactive” in each case. Also, the inhibition entry in test [8], in test [10], in test [11], in [12], in test [13] and in [14] was “inactive” throughout. The inhibition result in [15], in test [16], in test [17] and in test [18] was “inactive” each time. Moreover, the results for the IC50 in test [7] and in test [9] were 8 nM and 190 nM, respectively.
As for `O=C1c2ccc(Nc3ccc(F)cc3F)cc2CCc2ccc(OCCO)cc21`, the inhibition entry in test [1], in [2], in [3], in test [4], in [5] and in test [6] was “inactive” each time. Moreover, the inhibition result in [8], in test [10], in test [11], in test [12], in [13] and in [14] was “inactive” throughout. Besides, the inhibition entry in test [15], in test [16], in [17] and in [18] was “inactive” in each case. The values for the 50% inhibitory concentration (IC50) in test [7] and in test [9] were 10 nM and 480 nM, respectively.
`COc1ccc2c(c1)C(=O)c1ccc(Nc3ccccc3Cl)cc1CC2`: the inhibition entry in test [1], in [2], in test [3], in test [4], in test [5] and in [6] was “inactive” in each case. The inhibition entry in test [8], in [10], in [11], in test [12], in [13] and in test [14] was “inactive” in each case. Besides, the inhibition entry in test [15], in [16], in test [17] and in test [18] was “inactive” throughout. In addition, the figures for the 50% inhibitory concentration (IC50) in [7] and in test [9] were 560 nM and 4600 nM, respectively.
As for `COc1ccc2c(c1)C(=O)c1ccc(Nc3ccc(C(F)(F)F)cc3N)cc1CC2`, the inhibition result in [1], in [2], in [3], in test [4], in [5] and in test [6] was “inactive” in each case. The inhibition entry in test [8], in [10], in [11], in test [12], in test [13] and in [14] was “inactive” in each case. For the same compound, the inhibition result in [15], in [16], in test [17] and in test [18] was “inactive” throughout. Moreover, the IC50 in test [7] stood at 900 nM; in test [9], 25500 nM.
Regarding `CC1(C)OC[C@H](COc2ccc3c(c2)C(=O)c2ccc(Nc4ccccc4N)cc2CC3)O1`, the inhibition entry in test [1], in [2], in test [3], in [4], in test [5] and in test [6] was “inactive” in each case. Further, the inhibition result in [8], in test [10], in test [11], in test [12], in test [13] and in test [14] was “inactive” in each case. For the same compound, the inhibition entry in [15], in test [16], in test [17] and in [18] was “inactive” throughout. Further, the figures for the half-inhibitory concentration (IC50) in test [7] and in test [9] were 30 nM and 190 nM, respectively.
Turning to `Nc1ccccc1Nc1ccc2c(c1)CCc1c(OC[C@H](O)CO)cccc1C2=O`, the inhibition entry in [1], in test [2], in test [3], in test [4], in test [5] and in test [6] was “inactive” each time. Also, the inhibition entry in test [8], in [10], in test [11], in test [12], in test [13] and in test [14] was “inactive” in each case. The inhibition entry in [15], in [16], in test [17] and in [18] was “inactive” each time. Besides, the figures for the IC50 in test [7] and in [9] were 40 nM and 78800 nM, respectively.
